In US9957247B2, “SecA inhibitors and methods of making and using thereof” (Georgia State University Research Foundation, Inc., priority 2012, dated 2018):

What was measured:
[1] = test system: S. aureus Mu50; experiment: Bactericidal effect, S. aureus Mu50; conditions: 9 μg/ml, 1 hour at 37° C., FIG. 5
[2] = target: T1, SaSecA1 (Staphylococcus aureus, UniProt O06446); conditions: read-out: IC50, ATPase activity, SaSecA1; Table 7
T1 sequence (O06446 1-843): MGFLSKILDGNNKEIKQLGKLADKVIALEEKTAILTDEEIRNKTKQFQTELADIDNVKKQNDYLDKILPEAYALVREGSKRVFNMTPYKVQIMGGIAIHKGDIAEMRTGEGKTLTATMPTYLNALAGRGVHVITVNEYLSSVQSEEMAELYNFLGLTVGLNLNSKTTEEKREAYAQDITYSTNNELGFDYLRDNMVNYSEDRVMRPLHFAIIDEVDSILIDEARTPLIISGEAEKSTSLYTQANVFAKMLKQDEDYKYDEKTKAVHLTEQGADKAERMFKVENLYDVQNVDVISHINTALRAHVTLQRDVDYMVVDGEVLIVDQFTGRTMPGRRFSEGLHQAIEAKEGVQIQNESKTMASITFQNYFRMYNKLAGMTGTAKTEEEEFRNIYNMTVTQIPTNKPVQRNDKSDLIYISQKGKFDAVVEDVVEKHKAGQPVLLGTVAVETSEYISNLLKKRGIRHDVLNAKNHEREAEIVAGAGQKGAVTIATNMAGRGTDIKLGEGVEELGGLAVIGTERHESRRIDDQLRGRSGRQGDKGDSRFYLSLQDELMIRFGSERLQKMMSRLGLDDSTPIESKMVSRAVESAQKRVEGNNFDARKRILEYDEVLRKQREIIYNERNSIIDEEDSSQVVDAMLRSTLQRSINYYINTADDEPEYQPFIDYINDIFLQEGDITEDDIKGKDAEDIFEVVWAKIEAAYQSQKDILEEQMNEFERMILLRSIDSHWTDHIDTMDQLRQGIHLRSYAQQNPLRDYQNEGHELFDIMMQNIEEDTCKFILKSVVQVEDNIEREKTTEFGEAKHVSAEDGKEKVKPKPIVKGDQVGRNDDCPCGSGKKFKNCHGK

[3] = target: T2, SaSecA2 (Staphylococcus aureus, UniProt Q2FUW6); experiment: ATPase activity assay (malachite green), SaSecA2; conditions: IC50, ATPase activity, SaSecA2, Table 7
T2 sequence (Q2FUW6 1-796): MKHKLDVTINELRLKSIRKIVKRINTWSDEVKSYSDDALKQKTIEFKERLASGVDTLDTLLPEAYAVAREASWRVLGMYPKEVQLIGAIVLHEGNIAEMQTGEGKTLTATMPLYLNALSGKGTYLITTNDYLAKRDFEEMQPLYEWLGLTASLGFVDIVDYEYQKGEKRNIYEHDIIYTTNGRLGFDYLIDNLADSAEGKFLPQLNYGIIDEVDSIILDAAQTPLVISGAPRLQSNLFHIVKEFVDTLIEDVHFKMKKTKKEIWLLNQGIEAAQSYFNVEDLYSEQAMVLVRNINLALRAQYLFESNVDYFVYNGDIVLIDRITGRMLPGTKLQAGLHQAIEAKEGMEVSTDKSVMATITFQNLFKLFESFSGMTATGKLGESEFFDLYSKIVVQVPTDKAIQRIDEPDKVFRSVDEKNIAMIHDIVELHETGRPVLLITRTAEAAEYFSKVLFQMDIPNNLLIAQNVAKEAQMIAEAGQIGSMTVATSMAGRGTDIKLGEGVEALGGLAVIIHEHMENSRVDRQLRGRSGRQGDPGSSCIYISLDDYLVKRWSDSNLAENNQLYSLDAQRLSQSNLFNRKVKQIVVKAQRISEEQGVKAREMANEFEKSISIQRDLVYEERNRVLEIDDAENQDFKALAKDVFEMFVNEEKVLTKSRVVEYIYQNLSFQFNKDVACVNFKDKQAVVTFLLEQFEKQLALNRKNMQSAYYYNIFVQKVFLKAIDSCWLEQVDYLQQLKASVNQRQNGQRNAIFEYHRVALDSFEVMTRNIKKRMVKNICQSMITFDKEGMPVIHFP

CCCCCCC1c2ccc(O)cc2Oc2cc(O)ccc21 [SCA-50]
Bactericidal activity, log numbers killed, S. aureus Mu50 [1]: more than 3 log numbers
IC50 [2]: 20 µM
IC50 [3]: 17.5 µM
